According to patent US10442837B2, “Scorpion venom heat-resistant synthetic peptide and applications thereof” (priority 2016, dated 2019):
Peptide text beside a SMILES is read from it.

Key:
[1] = tested on: Kunming mice; test: Acute toxicity test, intraperitoneal injection; assay type: in vivo; conditions: 78.6 mg/kgBW ip
[2] = tested on: Kunming mice; test: Acute toxicity test, intraperitoneal injection; assay type: in vivo
Excerpt: 1) Main Observation Indicators:
(2) Minimal lethal dose (MLD): a dose that causes death in individual tested animals;
(3) The highest dose of nontoxic reaction (highest nontoxic dose): that is, no observed adverse effect level ([…]), i.e. the highest dose under which no injury is found for animals in a certain period of time;
(4) Minimum toxic reaction dose: minimum dose of toxic reaction in animals: that is the lowest dose of the toxic reaction in animals whose toxic responses are just caused.
(1) Tested animals: Kunming mice, half male and half female (healthy adult, weight 19-20 g);
(2) Subjects: SVHRSP: • a. source: BmK scorpion venom extract purchased from Henan Yichang Xinxin Scorpion Factory (May 28, 2012); • b. Lot No: P160418-CQ455216; • c. Content (or specification): 10 mg/piece; • d. Preservation conditions and preparation methods: −20° C. for long-term preservation, 4° C. for preservation within 7-10 d, and redissolved with millipore water when in use.
(3) Administration Route: respectively ip (intraperitoneal injection) route (the largest volume commonly used in mice ip route administration is 0.1-1.0 ml/20 gBW) the optimal administration doses to the animals (the doses are different, but the administration capacity is identical) are selected according to the route of administration, and 0.2 ml/20 gBW is adopted for the ip administration routes in this experiment.
According to the approximate lethal dose method, list the possible sequences:
the possible maximum tolerance dose and the possible minimum lethal dose of the SVHRSP are estimated according to the acute toxicity test results of the former scorpion venom heat-resistant polypeptide on Kunming mice. Then, a dose sequence table containing several doses is designed according to the 50% incremental method:
The possible lethal dose ranges (115.2, 76.8, 51.2, 34.1 mg/kg) are found from the estimated dose sequence list, where each dose is given to one animal, the minimum lethal dose and the maximum tolerated dose are measured, and then the dose between the two is given to an animal. If the animal under this dose doesn't die, the range between this dose and the minimum lethal dose is the approximate lethal dose range; if the animal under this dose dies, the range between this dose and the maximum tolerance dose is the approximate lethal dose range.

[3] = tested on: lithium-pilocarpine epilepsy model rats; test: Lithium-pilocarpine refractory epilepsy chronic model, episodes; assay type: in vivo, SD rats; conditions: 300 mg/kg, n = 9
Procedure: (1) Selection and groups of animals that 180 g healthy male SD rats are selected. Lithium-pilocarpine ip (intraperitoneal administration) 300 mg/kg is used to induce temporal lobe epilepsy episodes. After 15 days of acute epilepsy episode, epilepsy rats are randomly divided into a model group and a model administration group. […] The levels of epilepsy are observed and recorded, and graded according to Racine as the evaluation criteria.

## CC(C)C[C@H](NC(=O)[C@@H](NC(=O)[C@@H](N)CCCCN)C(C)C)C(=O)N[C@@H](CC(N)=O)C(=O)NCC(=O)N1CCC[C@H]1C(=O)N[C@@H](CCC(=O)O)C(=O)N[C@@H](CCC(=O)O)C(=O)N[C@@H](CCC(=O)O)C(=O)N[C@@H](C)C(=O)N[C@@H](C)C(=O)N[C@@H](C)C(=O)N1CCC[C@H]1C(=O)N[C@@H](C)C(=O)N[C@@H](CCC(=O)O)C(=O)O [SVHRSP] (H-KVLNGPEEEAAAPAE-OH)
[1]
  Lethal (%): 0%
  Survival (%): 100%
[2]; 115.2 mg/kgBW ip
  Lethal (%): 0%
  Survival (%): 100%
[2]; 172.8 mg/kgBW ip
  Lethal (%): 0%
  Survival (%): 100%
[2]; 500 mg/kgBW ip
  Lethal (%): 0%
  Survival (%): 100%
[2]; 2000 mg/kgBW ip
  Lethal (%): 0%
  Survival (%): 100%
  Toxic Reaction: no any toxic reaction is observed
[2]; ip 2000 mg/kg vs 0.05 mg/kg effective dose
  ratio of medicinal safety and pharmacodynamic activity (2000/0.05): > 40,000 times
[2]; ip, up to 2000 mg/kg·BW
  maximum non-toxic dose (highest nontoxic dose, no observed adverse effect level): has not reached yet

## CCCC(CCC)C(=O)[O-].[Na+] [sodium valproate]
[3]; First day
  Total Episode Averages superimposed ± Standard Deviation: 2.67 ± 0.85
[3]; First eight days
  Total Episode Averages superimposed ± Standard Deviation: 15.11 ± 2.73
[3]; First eleven days
  Total Episode Averages superimposed ± Standard Deviation: 18.89 ± 3.13
[3]; First fifteen days
  Total Episode Averages superimposed ± Standard Deviation: 23.56 ± 3.79
[3]; First five days
  Total Episode Averages superimposed ± Standard Deviation: 11.67 ± 2.24
[3]; First four days
  Total Episode Averages superimposed ± Standard Deviation: 9.56 ± 1.96
[3]; First fourteen days
  Total Episode Averages superimposed ± Standard Deviation: 22.67 ± 3.56
[3]; First nine days
  Total Episode Averages superimposed ± Standard Deviation: 16.33 ± 3.05
[3]; First seven days
  Total Episode Averages superimposed ± Standard Deviation: 13.89 ± 2.45
[3]; First six days
  Total Episode Averages superimposed ± Standard Deviation: 12.67 ± 2.30
[3]; First ten days
  Total Episode Averages superimposed ± Standard Deviation: 17.55 ± 2.91
[3]; First thirteen days
  Total Episode Averages superimposed ± Standard Deviation: 21.78 ± 3.58
[3]; First twelve days
  Total Episode Averages superimposed ± Standard Deviation: 20.56 ± 3.33
[3]; First two days
  Total Episode Averages superimposed ± Standard Deviation: 5.56 ± 1.27
